Test results taken from paper PMC4823954, “From fighting depression to conquering tumors: a novel tricyclic thiazepine compound as a tubulin polymerization inhibitor” (Cell Death & Disease, 2016).

Tests used:
Experiment in all cases: KINOMEscan
Format in all cases: binding
Details in all cases: read-out: % Ctrl
FGFR1 = target: T1, FGFR1 (Homo sapiens, UniProt P11362)
T1 construct: purchased DiscoveRx KINOMEscan
In short: (§1)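 Competition binding panel of 442 non-mutant kinases: test compound at 5 and 10 μM competed with an active-site-directed ligand for 1 h with shaking. Bound kinase was eluted with 0.5 μM ligand and quantified by qPCR; %Ctrl = (compound − positive control)/(DMSO − positive control) × 100, lower meaning tighter binding.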

MAST1 = target: T2, MAST1 (Homo sapiens, UniProt Q9Y2H9)
T2 construct: purchased DiscoveRx KINOMEscan
In short: as §1

CTK = target: T3, CTK (Homo sapiens, UniProt P42679)
T3 construct: purchased DiscoveRx KINOMEscan
In short: as §1

p38-delta = target: T4, p38-delta (Homo sapiens, UniProt O15264)
T4 construct: purchased DiscoveRx KINOMEscan
In short: as §1

MAP3K15 = target: T5, MAP3K15 (Homo sapiens, UniProt Q6ZN16)
T5 construct: purchased DiscoveRx KINOMEscan
In short: as §1

PHKG2 = target: T6, PHKG2 (Homo sapiens, UniProt P15735)
T6 construct: purchased DiscoveRx KINOMEscan
In short: as §1

PRKD2 = target: T7, PRKD2 (Homo sapiens, UniProt Q9BZL6)
T7 construct: purchased DiscoveRx KINOMEscan
In short: as §1

ZAK = target: T8, ZAK (Homo sapiens, UniProt Q9NYL2)
T8 construct: purchased DiscoveRx KINOMEscan
In short: as §1

DYRK2 = target: T9, DYRK2 (Homo sapiens, UniProt Q92630)
T9 construct: purchased DiscoveRx KINOMEscan
In short: as §1

EPHA2 = target: T10, EPHA2 (Homo sapiens, UniProt P29317)
T10 construct: purchased DiscoveRx KINOMEscan
In short: as §1

ADCK4 = target: T11, ADCK4 (Homo sapiens, UniProt Q96D53)
T11 construct: purchased DiscoveRx KINOMEscan
In short: as §1

DRAK1 = target: T12, DRAK1 (Homo sapiens, UniProt Q9UEE5)
T12 construct: purchased DiscoveRx KINOMEscan
In short: as §1

PAK3 = target: T13, PAK3 (Homo sapiens, UniProt O75914)
T13 construct: purchased DiscoveRx KINOMEscan
In short: as §1

JNK3 = target: T14, JNK3 (Homo sapiens, UniProt P53779)
T14 construct: purchased DiscoveRx KINOMEscan
In short: as §1

[1] = target: RPS6KA4(Kin.Dom.2-C-terminal) (Homo sapiens, UniProt O75676)
In short: as §1

KIT = target: T15, KIT (Homo sapiens, UniProt P10721)
T15 construct: purchased DiscoveRx KINOMEscan
In short: as §1

WEE2 = target: T16, WEE2 (Homo sapiens, UniProt P0C1S8)
T16 construct: purchased DiscoveRx KINOMEscan
In short: as §1

CDK3 = target: T17, CDK3 (Homo sapiens, UniProt Q00526)
T17 construct: purchased DiscoveRx KINOMEscan
In short: as §1

ACVR1B = target: T18, ACVR1B (Homo sapiens, UniProt P36896)
T18 construct: purchased DiscoveRx KINOMEscan
In short: as §1

AMPK-alpha1 = target: T19, AMPK-alpha1 (Homo sapiens, UniProt Q13131)
T19 construct: purchased DiscoveRx KINOMEscan
In short: as §1

TNK2 = target: T20, TNK2 (Homo sapiens, UniProt Q07912)
T20 construct: purchased DiscoveRx KINOMEscan
In short: as §1

MRCKA = target: T21, MRCKA (Homo sapiens, UniProt Q5VT25)
T21 construct: purchased DiscoveRx KINOMEscan
In short: as §1

PIM1 = target: T22, PIM1 (Homo sapiens, UniProt P11309)
T22 construct: purchased DiscoveRx KINOMEscan
In short: as §1

FGR = target: T23, FGR (Homo sapiens, UniProt P09769)
T23 construct: purchased DiscoveRx KINOMEscan
In short: as §1

ROS1 = target: T24, ROS1 (Homo sapiens, UniProt P08922)
T24 construct: purchased DiscoveRx KINOMEscan
In short: as §1

CDC2L1 = target: T25, CDC2L1 (Homo sapiens, UniProt P21127)
T25 construct: purchased DiscoveRx KINOMEscan
In short: as §1

MYLK4 = target: T26, MYLK4 (Homo sapiens, UniProt Q86YV6)
T26 construct: purchased DiscoveRx KINOMEscan
In short: as §1

PKMYT1 = target: T27, PKMYT1 (Homo sapiens, UniProt Q99640)
T27 construct: purchased DiscoveRx KINOMEscan
In short: as §1

[2] = target: T28, ABL1(M351T)-phosphorylated (Homo sapiens, UniProt P00519, M351T)
T28 construct: purchased DiscoveRx KINOMEscan

PIK3CA(E545K) = target: T29, PIK3CA(E545K) (Homo sapiens, UniProt P42336, E545K)
T29 construct: purchased DiscoveRx KINOMEscan

T19 sequence (Q13131 whole entry): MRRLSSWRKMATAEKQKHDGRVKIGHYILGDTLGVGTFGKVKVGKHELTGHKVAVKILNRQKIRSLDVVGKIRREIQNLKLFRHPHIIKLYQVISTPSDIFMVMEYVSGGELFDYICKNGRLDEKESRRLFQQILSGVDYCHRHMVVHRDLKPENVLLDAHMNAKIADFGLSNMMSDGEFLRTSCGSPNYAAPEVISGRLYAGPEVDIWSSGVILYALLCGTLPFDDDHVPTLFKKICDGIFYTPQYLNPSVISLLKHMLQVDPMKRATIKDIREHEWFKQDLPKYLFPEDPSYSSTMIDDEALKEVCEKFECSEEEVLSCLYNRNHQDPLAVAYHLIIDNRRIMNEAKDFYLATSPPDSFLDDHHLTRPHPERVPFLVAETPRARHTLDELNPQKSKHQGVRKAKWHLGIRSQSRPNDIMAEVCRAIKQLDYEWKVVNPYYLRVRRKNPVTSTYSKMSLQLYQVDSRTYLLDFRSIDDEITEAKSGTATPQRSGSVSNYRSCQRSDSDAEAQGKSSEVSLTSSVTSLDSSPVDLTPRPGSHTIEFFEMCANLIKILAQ
T10 sequence (P29317 24-976): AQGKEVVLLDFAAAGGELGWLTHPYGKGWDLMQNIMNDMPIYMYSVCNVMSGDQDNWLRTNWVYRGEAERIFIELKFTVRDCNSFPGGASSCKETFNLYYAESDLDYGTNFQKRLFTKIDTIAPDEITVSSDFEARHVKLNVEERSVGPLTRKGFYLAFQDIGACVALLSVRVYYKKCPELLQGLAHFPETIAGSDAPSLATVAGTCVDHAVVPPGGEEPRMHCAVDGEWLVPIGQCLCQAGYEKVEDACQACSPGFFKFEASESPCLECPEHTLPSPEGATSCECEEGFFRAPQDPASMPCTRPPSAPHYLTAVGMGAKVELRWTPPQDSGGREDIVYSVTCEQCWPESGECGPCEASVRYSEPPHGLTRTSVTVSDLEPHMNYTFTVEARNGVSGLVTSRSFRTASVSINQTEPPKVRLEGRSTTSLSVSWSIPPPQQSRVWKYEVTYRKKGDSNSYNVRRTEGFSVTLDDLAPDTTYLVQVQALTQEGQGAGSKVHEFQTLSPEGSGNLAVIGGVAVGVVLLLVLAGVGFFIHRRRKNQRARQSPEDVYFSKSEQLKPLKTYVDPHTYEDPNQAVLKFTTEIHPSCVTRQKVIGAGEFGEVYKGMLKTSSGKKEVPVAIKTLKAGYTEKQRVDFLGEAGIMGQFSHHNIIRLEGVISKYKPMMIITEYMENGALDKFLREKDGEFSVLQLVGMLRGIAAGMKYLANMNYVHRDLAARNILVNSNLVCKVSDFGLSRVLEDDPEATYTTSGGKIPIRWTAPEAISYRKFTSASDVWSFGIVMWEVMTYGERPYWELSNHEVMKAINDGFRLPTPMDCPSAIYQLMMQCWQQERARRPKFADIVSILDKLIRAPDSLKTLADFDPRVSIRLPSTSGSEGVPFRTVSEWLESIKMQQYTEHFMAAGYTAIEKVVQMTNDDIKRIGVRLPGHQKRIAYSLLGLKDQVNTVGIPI
T4 sequence (O15264 whole entry): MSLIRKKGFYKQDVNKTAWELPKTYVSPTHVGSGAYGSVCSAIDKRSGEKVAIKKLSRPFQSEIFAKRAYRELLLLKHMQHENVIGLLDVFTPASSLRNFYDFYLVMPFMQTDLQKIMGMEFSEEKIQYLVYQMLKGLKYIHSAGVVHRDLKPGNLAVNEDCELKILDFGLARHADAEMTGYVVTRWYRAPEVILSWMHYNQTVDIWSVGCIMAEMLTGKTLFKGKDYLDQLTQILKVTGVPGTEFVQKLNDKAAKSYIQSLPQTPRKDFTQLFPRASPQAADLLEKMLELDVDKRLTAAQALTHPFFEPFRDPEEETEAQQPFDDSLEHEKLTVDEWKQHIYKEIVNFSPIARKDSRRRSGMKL
T23 sequence (P09769 whole entry): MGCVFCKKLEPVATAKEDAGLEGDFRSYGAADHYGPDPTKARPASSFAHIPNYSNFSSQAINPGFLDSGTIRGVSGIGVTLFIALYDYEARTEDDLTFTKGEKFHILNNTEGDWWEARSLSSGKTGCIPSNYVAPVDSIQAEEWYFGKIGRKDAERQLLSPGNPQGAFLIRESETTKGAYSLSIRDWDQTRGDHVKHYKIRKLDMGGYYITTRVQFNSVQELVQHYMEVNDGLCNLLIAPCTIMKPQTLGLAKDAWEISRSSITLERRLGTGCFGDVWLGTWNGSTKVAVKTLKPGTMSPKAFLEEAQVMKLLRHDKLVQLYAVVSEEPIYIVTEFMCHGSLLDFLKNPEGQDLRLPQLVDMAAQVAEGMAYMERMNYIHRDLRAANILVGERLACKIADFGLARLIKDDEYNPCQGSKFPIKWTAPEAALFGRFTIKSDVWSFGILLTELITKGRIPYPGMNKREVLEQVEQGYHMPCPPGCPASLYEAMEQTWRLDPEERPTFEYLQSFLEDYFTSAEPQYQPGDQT
T26 sequence (Q86YV6 whole entry): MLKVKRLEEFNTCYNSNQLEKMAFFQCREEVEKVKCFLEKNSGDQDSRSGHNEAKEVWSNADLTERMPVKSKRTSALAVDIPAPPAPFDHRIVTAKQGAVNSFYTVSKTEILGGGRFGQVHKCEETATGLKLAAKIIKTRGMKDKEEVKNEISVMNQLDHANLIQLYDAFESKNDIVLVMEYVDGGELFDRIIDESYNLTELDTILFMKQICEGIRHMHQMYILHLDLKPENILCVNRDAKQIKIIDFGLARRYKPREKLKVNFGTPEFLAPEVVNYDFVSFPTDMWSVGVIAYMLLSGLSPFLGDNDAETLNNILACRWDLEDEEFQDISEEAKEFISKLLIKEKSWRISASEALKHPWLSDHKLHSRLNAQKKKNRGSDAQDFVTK
T18 sequence (P36896 24-505): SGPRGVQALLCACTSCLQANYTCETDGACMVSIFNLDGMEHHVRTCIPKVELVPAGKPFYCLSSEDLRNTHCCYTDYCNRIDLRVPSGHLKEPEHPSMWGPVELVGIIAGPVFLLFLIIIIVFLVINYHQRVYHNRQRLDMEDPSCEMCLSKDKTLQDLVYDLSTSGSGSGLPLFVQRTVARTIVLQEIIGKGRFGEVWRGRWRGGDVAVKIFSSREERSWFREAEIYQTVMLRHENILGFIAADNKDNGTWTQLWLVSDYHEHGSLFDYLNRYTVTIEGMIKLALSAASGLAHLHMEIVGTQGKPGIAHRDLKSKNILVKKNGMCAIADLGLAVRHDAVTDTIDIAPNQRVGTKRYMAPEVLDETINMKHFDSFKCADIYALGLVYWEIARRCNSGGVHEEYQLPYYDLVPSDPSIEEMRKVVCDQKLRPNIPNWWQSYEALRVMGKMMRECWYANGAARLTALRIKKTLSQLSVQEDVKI
T15 sequence (P10721 26-976): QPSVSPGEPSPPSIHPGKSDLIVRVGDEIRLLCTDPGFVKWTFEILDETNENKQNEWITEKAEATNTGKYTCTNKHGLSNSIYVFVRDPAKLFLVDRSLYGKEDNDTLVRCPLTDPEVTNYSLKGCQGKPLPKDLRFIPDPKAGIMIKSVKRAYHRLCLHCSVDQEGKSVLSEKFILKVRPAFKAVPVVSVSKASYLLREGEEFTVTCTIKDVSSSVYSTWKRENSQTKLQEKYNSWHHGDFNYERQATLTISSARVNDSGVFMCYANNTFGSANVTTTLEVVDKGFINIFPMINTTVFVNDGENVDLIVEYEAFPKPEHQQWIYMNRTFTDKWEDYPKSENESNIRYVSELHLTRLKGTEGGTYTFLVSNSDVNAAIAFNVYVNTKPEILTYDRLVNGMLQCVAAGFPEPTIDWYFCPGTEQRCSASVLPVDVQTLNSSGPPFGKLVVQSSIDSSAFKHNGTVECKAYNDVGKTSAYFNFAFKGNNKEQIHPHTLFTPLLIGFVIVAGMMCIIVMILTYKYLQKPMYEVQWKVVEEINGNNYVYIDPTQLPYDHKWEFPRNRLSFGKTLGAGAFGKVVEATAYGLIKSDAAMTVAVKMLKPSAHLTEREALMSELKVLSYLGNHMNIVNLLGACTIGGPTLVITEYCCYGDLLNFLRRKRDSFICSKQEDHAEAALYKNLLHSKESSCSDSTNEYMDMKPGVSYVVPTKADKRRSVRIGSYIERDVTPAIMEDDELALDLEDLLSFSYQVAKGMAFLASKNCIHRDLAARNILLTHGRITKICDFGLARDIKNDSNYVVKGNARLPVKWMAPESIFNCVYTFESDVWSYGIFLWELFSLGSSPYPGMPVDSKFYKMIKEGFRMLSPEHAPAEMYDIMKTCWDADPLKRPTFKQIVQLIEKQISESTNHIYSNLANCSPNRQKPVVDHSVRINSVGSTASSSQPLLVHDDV
T13 sequence (O75914 whole entry): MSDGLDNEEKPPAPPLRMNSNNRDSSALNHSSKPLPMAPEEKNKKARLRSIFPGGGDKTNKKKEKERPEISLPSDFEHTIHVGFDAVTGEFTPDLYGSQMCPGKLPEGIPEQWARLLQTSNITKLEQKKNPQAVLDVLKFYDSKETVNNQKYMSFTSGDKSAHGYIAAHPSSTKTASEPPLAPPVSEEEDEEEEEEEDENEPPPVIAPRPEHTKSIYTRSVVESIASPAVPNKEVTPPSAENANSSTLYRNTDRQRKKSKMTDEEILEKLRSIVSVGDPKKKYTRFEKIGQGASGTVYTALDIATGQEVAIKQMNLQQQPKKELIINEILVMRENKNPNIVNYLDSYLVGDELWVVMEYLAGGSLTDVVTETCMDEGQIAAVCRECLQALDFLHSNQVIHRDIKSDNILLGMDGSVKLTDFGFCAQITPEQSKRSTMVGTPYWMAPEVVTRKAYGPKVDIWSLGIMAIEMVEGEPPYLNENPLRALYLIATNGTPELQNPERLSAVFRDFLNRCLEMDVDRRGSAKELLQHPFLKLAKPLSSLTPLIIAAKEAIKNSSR

Cc1ccc(C2=Nc3cccnc3S(=O)(=O)c3ccccc32)cc1 [TBPT, 6-(p-tolyl)benzo[f] pyrido[2,3-b][1,4] thiazepine 11,11-dioxide]
remaining binding at 5 µM (FGFR1; 5 μM): 98%
remaining binding at 10 µM (FGFR1; 10 μM): 100%
remaining binding at 5 µM (MAST1; 5 μM): 45%
remaining binding at 10 µM (MAST1; 10 μM): 87%
remaining binding at 5 µM (CTK; 5 μM): 94%
remaining binding at 10 µM (CTK; 10 μM): 100%
remaining binding at 5 µM (p38-delta; 5 μM): 75%
remaining binding at 10 µM (p38-delta; 10 μM): 65%
remaining binding at 5 µM (MAP3K15; 5 μM): 100%
remaining binding at 10 µM (MAP3K15; 10 μM): 100%
remaining binding at 5 µM (PHKG2; 5 μM): 100%
remaining binding at 10 µM (PHKG2; 10 μM): 100%
remaining binding at 5 µM (PRKD2; 5 μM): 100%
remaining binding at 10 µM (PRKD2; 10 μM): 100%
remaining binding at 5 µM (ZAK; 5 μM): 94%
remaining binding at 10 µM (ZAK; 10 μM): 83%
remaining binding at 5 µM (DYRK2; 5 μM): 93%
remaining binding at 10 µM (DYRK2; 10 μM): 100%
remaining binding at 5 µM (EPHA2; 5 μM): 87%
remaining binding at 10 µM (EPHA2; 10 μM): 95%
remaining binding at 5 µM (ADCK4; 5 μM): 83%
remaining binding at 10 µM (ADCK4; 10 μM): 94%
remaining binding at 5 µM (DRAK1; 5 μM): 94%
remaining binding at 10 µM (DRAK1; 10 μM): 92%
remaining binding at 5 µM (PAK3; 5 μM): 100%
remaining binding at 10 µM (PAK3; 10 μM): 100%
remaining binding at 5 µM (JNK3; 5 μM): 84%
remaining binding at 10 µM (JNK3; 10 μM): 95%
remaining binding at 5 µM ([1]; 5 μM): 100%
remaining binding at 10 µM ([1]; 10 μM): 90%
remaining binding at 5 µM (KIT; 5 μM): 72%
remaining binding at 10 µM (KIT; 10 μM): 100%
remaining binding at 5 µM (WEE2; 5 μM): 100%
remaining binding at 10 µM (WEE2; 10 μM): 100%
remaining binding at 5 µM (CDK3; 5 μM): 100%
remaining binding at 10 µM (CDK3; 10 μM): 100%
remaining binding at 5 µM (ACVR1B; 5 μM): 98%
remaining binding at 10 µM (ACVR1B; 10 μM): 91%
remaining binding at 5 µM (AMPK-alpha1; 5 μM): 100%
remaining binding at 10 µM (AMPK-alpha1; 10 μM): 100%
remaining binding at 5 µM (TNK2; 5 μM): 100%
remaining binding at 10 µM (TNK2; 10 μM): 100%
remaining binding at 5 µM (MRCKA; 5 μM): 89%
remaining binding at 10 µM (MRCKA; 10 μM): 99%
remaining binding at 5 µM (PIM1; 5 μM): 91%
remaining binding at 10 µM (PIM1; 10 μM): 90%
remaining binding at 5 µM (FGR; 5 μM): 97%
remaining binding at 10 µM (FGR; 10 μM): 73%
remaining binding at 5 µM (ROS1; 5 μM): 100%
remaining binding at 10 µM (ROS1; 10 μM): 100%
remaining binding at 5 µM (CDC2L1; 5 μM): 99%
remaining binding at 10 µM (CDC2L1; 10 μM): 100%
remaining binding at 5 µM (MYLK4; 5 μM): 94%
remaining binding at 10 µM (MYLK4; 10 μM): 99%
remaining binding at 5 µM (PKMYT1; 5 μM): 86%
remaining binding at 10 µM (PKMYT1; 10 μM): 99%
remaining binding at 5 µM ([2]; 5 μM): 81%
remaining binding at 10 µM ([2]; 10 μM): 100%
remaining binding at 5 µM (PIK3CA(E545K); 5 μM): 81%
remaining binding at 10 µM (PIK3CA(E545K); 10 μM): 100%
